pIC50: −log10 of the molar value.
Biological target: RAC-alpha serine/threonine-protein kinase (Homo sapiens, UniProt P31749)
Assay: Inhibition of protein kinase B alpha (Akt1) in fluorescent enzymatic assay

RAC-alpha serine/threonine-protein kinase, sequence (P31749 whole entry): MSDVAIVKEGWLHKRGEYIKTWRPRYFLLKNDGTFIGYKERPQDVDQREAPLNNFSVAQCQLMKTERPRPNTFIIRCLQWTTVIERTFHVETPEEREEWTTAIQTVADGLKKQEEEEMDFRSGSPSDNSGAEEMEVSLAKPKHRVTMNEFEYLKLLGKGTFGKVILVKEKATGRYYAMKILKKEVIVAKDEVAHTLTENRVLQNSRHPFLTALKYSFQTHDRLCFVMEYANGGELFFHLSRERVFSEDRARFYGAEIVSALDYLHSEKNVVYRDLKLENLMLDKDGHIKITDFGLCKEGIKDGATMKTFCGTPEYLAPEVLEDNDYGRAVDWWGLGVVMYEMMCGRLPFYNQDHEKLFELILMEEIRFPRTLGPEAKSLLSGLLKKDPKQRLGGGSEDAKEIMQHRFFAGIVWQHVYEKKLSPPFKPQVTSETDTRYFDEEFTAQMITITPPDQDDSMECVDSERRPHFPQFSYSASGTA

pIC50: 4.22
SMILES: CC1=C(C#N)c2nc(N)c(C#N)c(C)c2/C1=C/c1ccc(-c2cccc(C(=O)O)c2)o1

From ChEMBL document CHEMBL1143561, “Virtual docking approaches to protein kinase B inhibition” (J Med Chem, 2005)
